From US20030055077A1, “Method and compositions for the treatment of allergic conditions using pgd2 receptor antagonists” (priority 2002, published 2003)

Test system: ovalbumin-sensitized guinea pigs
Assay: Guinea pig allergic rhinitis model: intranasal pressure after nasal ovalbumin challenge
Format: in vivo
Details: single administration, 60 minutes prior to ovalbumin 1% challenge, AUC 0-30 min
Description: Male Hartley guinea pigs (250-500 g) purchased from Charles River (St-Constant, Qc, Canada) were used. They were housed in a temperature and humidity controlled environment, in groups of four or five with food and water available ad libitum. Experimental procedures were approved by the Animal Care Committee at Merck Frosst Centre for Therapeutic Research, in accordance with the guidelines of the Canadian Council on Animal Care.
Sensitization: The animals were injected intrapeRitoneally with 0.5 ml of an ovalbumin solution (100 μg/ml) containing 100 mg/ml aluminum hydroxide in 0.9% saline. […]
Following the surgical preparation, gallamine (2 mg/kg, i.v.) was administered to suppress spontaneous breathing. […] The changes in the intranasal pressure were monitored through a pressure transducer (Validyne DP-45, membrane 6-26, Validyne Corp., Northridge, Calif.) connected to a side arm of the nasal cannula. Values were recorded every 5 seconds using a data acquisition system (Modular Instruments, Malvern, Pa.). […] The changes in intranasal pressure were recorded for 30 minutes following the nasal challenge, using the peak response.
The effects of test compounds were evaluated on the increased intranasal pressure following a nasal challenge with an aerosol of ovalbumin 1% for 3 minutes. […]

Row | Compound | effect on the increase in intranasal pressure produced by aerosol of ovalbumin (1 mg/kg i.p.) | effect on the increase in intranasal pressure produced by aerosol of ovalbumin (5 mg/kg i.p.)
1 | C[S@+]([O-])c1cccc2c3c(n(Cc4ccc(Cl)cc4)c12)[C@@H](CC(=O)O)CCC3 [Compound I, 2-[(1R)-9-(4-chlorobenzyl)-8-((S)-methylsulfinyl)-2,3,4,9-tetrahydro-1H-carbazol-1-yl]acetic acid] | no significant effect | –
2 | COc1ccc(CN(CCN(C)C)c2ccccn2)cc1 [mepyramine] | – | no significant effect
